{
  "source": "patent US11672757B2",
  "about": "“Hot melt extrusion for pharmaceutical vaginal film products” (UNIVERSITY OF PITTSBURGH-OF THE COMMONWEALTH SYSTEM OF …, priority 2017, dated 2023)",
  "key": {"TZM-bl cells": {"tested_on": "TZM-bl cells", "format": "cell-based", "procedure": "A DPV film was dissolved in 2 mL of saline and ten-fold serial dilutions were made. The DPV drug substance stock solution (1000 nM) was mixed in DMSO and serially diluted in DMEM with 10% BSA supplemented with antibiotics, which is the medium used in the TZM-bl assay. All dilution samples were added in triplicates to the TZM-bl cells that were plated. […] For cellular toxicity evaluation, similar set up of the experiment was conducted. Except that for toxicity study, the cells were not exposed to the virus. In this study the cells were exposed to CellTiter-Glo, and luminescence signal was measured. Cellular viability was determined based on the deviation from the cell-only control (Nixon, B., et al., Griffithsin protects mice from genital herpes by preventing cell-to-cell spread. J. Virol., 2013, 87(11):6257-6269)."}, "[1]": {"tested_on": "wild type and resistant mutant HIV", "conditions": "cited from earlier work"}, "[2]": {"conditions": "pH 9; cited from earlier work"}, "[3]": {"tested_on": "G. vaginalis (ATCC 14018)", "assay": "Zone of inhibition on HBT plate lawn", "format": "cell-based, Gardnella vaginalis", "conditions": "37° C., 6% CO2, 48 hours", "experimental": "To test the bioactivity of metronidazole film, Gardnella vaginalis (G. vaginilis) (ATCC 14018) was plated on HBT plates to form a lawn. A metronidazole film was placed in the middle of the plated bacteria and plates were incubated at 37° C. with 6% CO2 for 48 hours. Post incubation, the plates were visually inspected for the formation of a zone of inhibition. Placebo films and metronidazole drug substance were prepared and tested in the same manner as the controls. […] This confirms that G. vaginilis growth is inhibited by the presence of both the metronidazole drug substance alone and within the film. On the other hand, G. vaginilis was not affected by the placebo film.\nTo test the bioactivity of bacterial/metronidazole combination film, G. vaginalis (ATCC 14018) was plated on Human Blood Tween Bilayer (HBT) plates to form a lawn. Bacteria/metronidazole film was placed in the middle of the HBT plated bacteria and plates were incubated at 37° C. with 6% CO2 for 48 hours. Post incubation, the plates were visually inspected for the formation of a zone of inhibition and L. jensenii growth. Placebo films, metronidazole drug substance, and bacterial loaded film were prepared and tested in the same manner as the controls. […] Therefore, the desired in vivo antimicrobial and probiotic effects of the combination film were confirmed in vitro. […]"}, "human cervical explants": {"tested_on": "human cervical explants", "conditions": "cited from earlier work"}, "rabbit model": {"tested_on": "rabbit model", "conditions": "in vivo rabbit model; cited from earlier work"}},
  "data": [
    {"compound": "Cc1cc(C)c(Nc2ccnc(Nc3ccc(C#N)cc3)n2)c(C)c1", "note": "[DPV, Dapivirine]", "values": [
      {"measurement": "cellular toxicity", "setting": "TZM-bl cells", "value": "no cellular toxicity"},
      {"measurement": "EC50", "setting": "[1]", "value": 0.3, "unit": "ng/mL"},
      {"measurement": "EC90", "setting": "[1]", "value": 0.9, "unit": "ng/mL"},
      {"measurement": "logP", "setting": "[2]", "value": 5.27}
    ]},
    {"compound": "Cc1ncc([N+](=O)[O-])n1CCO", "note": "[Metronidazole]", "values": [
      {"measurement": "zone of inhibition", "setting": "[3]", "value": "~1.5", "unit": "cm"}
    ]},
    {"compound": "Griffithsin [GRFT]", "values": [
      {"measurement": "safety", "setting": "human cervical explants", "value": "safe"},
      {"measurement": "safety", "setting": "rabbit model", "value": "safe"}
    ]}
  ]
}
